Test results as given in paper PMC9693575, “Isopropyl Amino Acid Esters Ionic Liquids as Vehicles for Non-Steroidal Anti-Inflammatory Drugs in Potential Topical Drug Delivery Systems with Antimicrobial Activity” (International Journal of Molecular Sciences, 2022).
Where two headings read alike, the source gives them in different places.

Tests used:
[1] = test system: Staphylococcus epidermidis; assay: Disc diffusion antimicrobial susceptibility test, Staphylococcus epidermidis; format: cell-based; design: key to Inhibition diameter: -: no growth of the organism
Method: (§1) The plates were incubated for 24 h at 37 °C.

[2] = pKa / pKB by potentiometric acid-base titration and formation constant log(KS); settings: calculated from pKA of acid and pKB of base
Method: Determination of formation constant pKs
Zabrze, Poland). For the measurement of pKA acids, 0.1 M NaOH was used. In order to
ester hydrochloride, HCl aqueous solution, was added in an amount that allowed reach-
After that, an acid-base titration was made out by adding dropwise 5 mM

Micrococcus Luteus = assay: Disc diffusion antimicrobial susceptibility test, Micrococcus luteus; format: cell-based; design: key to Inhibition diameter: -: no growth of the organism
[3] = Thermogravimetric analysis (thermal stability); settings: for TDTGmax, maximum decomposition temperature: DTG, air atmosphere, 10 °C min−1
Method: The thermal stabilities of the obtained NSAIDs isopropyl ester amino acid salts were investigated. […] The beginning of thermal degradation was evaluated based on the value of onset of the TG curve, which occurs in the first phase of the process. […]
Thermogravimetric analysis (TG)
Thermogravimetric analysis was carried out using Netzsch Proteus Thermal Analy- […]
Samples of 5–8 mg were loaded in Al2O3 […]
ment was performed in an air atmosphere (25 cm3min−1) with nitrogen flow (10 cm3min−1) […]
Differential scanning calorimetry (DSC)
Phase transformation temperatures were determined on a PerkinElmer DSC-7 (Rot-gau, Germany). The samples of 3–5 mg were loaded on the aluminum pan with a crimped lid. Measurements were carried out in a nitrogen atmosphere (20 cm3 min-1). The rate of heating/cooling was 5°C min-1. […]
tained for 30 min inside the furnace, then cooled to 0°C to condition the sample and the crucible. After that, heating was conducted to the specified temperature, followed by cool-ing. Unless otherwise stated, two complete cycles of heating and cooling were performed.
The specified maximum temperature was individual for each compound, determined from TG analysis, and it was at least 10°C lower than the onset decomposition tempera-ture. Temperatures reported from DSC data are curve peaks, the melting points being endothermic upon heating and crystallization point being exothermic upon cooling. Lead, indium, tin, and zinc were used as standards to calibrate the temperature. Indium was used for enthalpy measurement calibration. […]

Escherichia coli = assay: Disc diffusion antimicrobial susceptibility test, Escherichia coli; format: cell-based; design: key to Inhibition diameter: -: no growth of the organism
Method: as §1

physchem = assay: physchem
Description: This study aims to compare the influence of amino acid structure on the physicochemical properties of NSAID salts with the isopropyl ester of amino acids.

[4] = DTG; cited from earlier work
[5] = solution transferred to disc 25 mg cm^−3
[6] = solution transferred to disc 50 mg cm^−3
[7] = solution transferred to disc 100 mg cm^−3
[8] = solution transferred to disc 200 mg cm^−3
[9] = solution transferred to disc 400 mg cm^−3
[10] = solution transferred to disc 600 mg cm^−3
[11] = solution transferred to disc 800 mg cm^−3
[12] = solution transferred to disc 1000 mg cm^−3

Structure (SMILES) | Inhibition diameter [1, 5] | Inhibition diameter [1, 6] | Inhibition diameter [1, 7] | Inhibition diameter [1, 8] | Inhibition diameter [1, 9] | Inhibition diameter [1, 10] | Inhibition diameter [1, 11] [mm] | Inhibition diameter [1, 12] [mm] | Log(KS) formation constant [2] | Inhibition diameter (Micrococcus Luteus; [5]) | Inhibition diameter (Micrococcus Luteus; [6]) [mm] | Inhibition diameter (Micrococcus Luteus; [7]) [mm] | Inhibition diameter (Micrococcus Luteus; [8]) [mm] | Inhibition diameter (Escherichia coli; [5]) | Inhibition diameter (Escherichia coli; [6]) | Inhibition diameter (Escherichia coli; [7]) | Inhibition diameter (Escherichia coli; [8]) | Inhibition diameter (Escherichia coli; [9]) | Inhibition diameter (Escherichia coli; [10]) | Inhibition diameter (Escherichia coli; [12]) | further results
CC[C@H](C)[C@H](N)C(=O)OC(C)C.COc1ccc2cc([C@H](C)C(=O)O)ccc2c1 [[L-IleOiPr][NAP], L-isoleucine isopropyl ester naproxenate] | - | - | - | - | - | 12.0 ± 0.3 mm | 12.4 ± 0.2 | 13.5 ± 0.3 | 6.11 | 6.4 ± 0.1 mm | 6.7 ± 0.1 | 7.0 ± 0.1 | 7.3 ± 0.1 | - | - | - | - | - | - | - | Inhibition diameter (Micrococcus Luteus; [9]): 7.5 ± 0.2 mm; Inhibition diameter (Micrococcus Luteus; [10]): 8.1 ± 0.6 mm; Inhibition diameter (Micrococcus Luteus; [11]): 8.7 ± 0.1 mm; Inhibition diameter (Micrococcus Luteus; [12]): 9.5 ± 0.1 mm; TTGonset, the onset of the thermal degradation [3]: 127.0 °C; TDTGmax, maximum decomposition temperature [3]: 287.4 °C
CC(C)Cc1ccc(C(C)C(=O)O)cc1.CSCCC(N)C(=O)OC(C)C (mixture of isomers) [[L-MetOiPr][IBU]] | - | - | 8.3 ± 0.1 mm | 13.6 ± 0.2 mm | 14.7 ± 0.2 mm | 15.4 ± 0.2 mm | 17.0 ± 0.2 | 17.7 ± 0.3 | 5.53 | - | 7.3 ± 0.2 | 8.5 ± 0.2 | 10.4 ± 0.1 | - | 6.1 ± 0.1 mm | 6.2 ± 0.1 mm | 6.5 ± 0.2 mm | 7.1 ± 0.3 mm | 7.6 ± 0.2 mm | 8.1 ± 0.1 mm | Solubility in Phosphate Buffer pH = 5.4 (physchem): 0.932 ± 0.011 g dm^−3; Solubility in Phosphate Buffer pH = 5.4, as active substance (physchem): 0.483 ± 0.011 gAS dm^−3; Solubility in Phosphate Buffer pH = 7.4 (physchem): 3.376 ± 0.001 g dm^−3; Solubility in Phosphate Buffer pH = 7.4, as active substance (physchem): 1.752 ± 0.001 gAS dm^−3; Inhibition diameter (Micrococcus Luteus; [9]): 12.6 ± 0.1 mm; Inhibition diameter (Micrococcus Luteus; [10]): 14.1 ± 0.1 mm; Inhibition diameter (Micrococcus Luteus; [11]): 14.3 ± 0.1 mm; Inhibition diameter (Micrococcus Luteus; [12]): 14.6 ± 0.3 mm; TDTGmax, maximum decomposition temperature [4]: 209.9 [50] °C
CC(C)Cc1ccc(C(C)C(=O)O)cc1.CCC(C)C(N)C(=O)OC(C)C (mixture of isomers) [[L-IleOiPr][IBU]] | 7.5 ± 0.2 mm | 9.5 ± 0.4 mm | 14.4 ± 0.2 mm | 15.4 ± 0.4 mm | 17.0 ± 0.2 mm | 17.5 ± 0.1 mm | 18.0 ± 0.1 | 19.3 ± 0.1 | 5.78 | 7.2 ± 0.2 mm | 7.6 ± 0.1 | 8.6 ± 0.1 | 9.4 ± 0.2 | - | - | - | 6.3 ± 0.1 mm | 6.4 ± 0.3 mm | 7.1 ± 0.2 mm | 7.8 ± 0.3 mm | Solubility in Phosphate Buffer pH = 5.4 (physchem): 1.161 ± 0.002 g dm^−3; Solubility in Phosphate Buffer pH = 5.4, as active substance (physchem): 0.631 ± 0.002 gAS dm^−3; Solubility in Phosphate Buffer pH = 7.4 (physchem): 4.038 ± 0.021 g dm^−3; Solubility in Phosphate Buffer pH = 7.4, as active substance (physchem): 2.195 ± 0.021 gAS dm^−3; Inhibition diameter (Micrococcus Luteus; [9]): 10.7 ± 0.1 mm; Inhibition diameter (Micrococcus Luteus; [10]): 11.2 ± 0.1 mm; Inhibition diameter (Micrococcus Luteus; [11]): 11.6 ± 0.1 mm; Inhibition diameter (Micrococcus Luteus; [12]): 12.3 ± 0.2 mm; TDTGmax, maximum decomposition temperature [4]: 221.9 [50] °C
CC(C)OC(=O)[C@@H](N)C(C)C.COc1ccc2cc([C@H](C)C(=O)O)ccc2c1 [[L-ValOiPr][NAP]] | - | - | - | - | - | - | 6.6 ± 0.3 | 7.4 ± 0.1 | 5.89 | 6.2 ± 0.1 mm | 6.3 ± 0.1 | 6.4 ± 0.1 | 7.2 ± 0.1 | - | - | - | - | - | - | - | Inhibition diameter (Micrococcus Luteus; [9]): 7.3 ± 0.1 mm; Inhibition diameter (Micrococcus Luteus; [10]): 7.4 ± 0.2 mm; Inhibition diameter (Micrococcus Luteus; [11]): 8.2 ± 0.2 mm; Inhibition diameter (Micrococcus Luteus; [12]): 8.6 ± 0.2 mm; TDTGmax, maximum decomposition temperature [4]: 275.8 [48] °C
CC(C)Cc1ccc(C(C)C(=O)O)cc1.CC(C)OC(=O)[C@@H](N)[C@@H](C)O [[L-ThrOiPr][IBU], L-threonine isopropyl ester ibuprofenate] | 7.5 ± 0.2 mm | 10.5 ± 0.2 mm | 15.4 ± 0.1 mm | 16.9 ± 0.2 mm | 17.5 ± 0.2 mm | 18.3 ± 0.2 mm | 19.8 ± 1.4 | 23.2 ± 0.1 | 6.47 | 7.3 ± 0.2 mm | 10.4 ± 0.2 | 15.5 ± 0.2 | 16.3 ± 0.1 | - | - | - | - | - | - | - | Inhibition diameter (Micrococcus Luteus; [9]): 17.0 ± 0.2 mm; Inhibition diameter (Micrococcus Luteus; [10]): 17.5 ± 0.1 mm; Inhibition diameter (Micrococcus Luteus; [11]): 18.2 ± 0.2 mm; Inhibition diameter (Micrococcus Luteus; [12]): 19.3 ± 0.2 mm; TDTGmax, maximum decomposition temperature [4]: 209.9 [50] °C
CC(C)Cc1ccc(C(C)C(=O)O)cc1 (racemic) [IBU, (R,S)-ibuprofen, reference compound] |  |  |  |  |  |  |  |  |  |  |  |  |  | - | - | - | - | - | - | - | zone of inhibition at 25000 µg/mL ([1]; Staphylococcus epidermidis, 24 h, solution transferred to disc 25 mg cm^−3, read-out: Inhibition diameter): 10.8 ± 0.3 mm; zone of inhibition at 50000 µg/mL ([1]; Staphylococcus epidermidis, 24 h, solution transferred to disc 50 mg cm^−3, read-out: Inhibition diameter): 11.5 ± 0.3 mm; zone of inhibition at 100000 µg/mL ([1]; Staphylococcus epidermidis, 24 h, solution transferred to disc 100 mg cm^−3, read-out: Inhibition diameter): 14.9 ± 0.3 mm; zone of inhibition at 200000 µg/mL ([1]; Staphylococcus epidermidis, 24 h, solution transferred to disc 200 mg cm^−3, read-out: Inhibition diameter): 15.3 ± 0.3 mm; zone of inhibition at 400000 µg/mL ([1]; Staphylococcus epidermidis, 24 h, solution transferred to disc 400 mg cm^−3, read-out: Inhibition diameter): 16.4 ± 0.2 mm; zone of inhibition at 600000 µg/mL ([1]; Staphylococcus epidermidis, 24 h, solution transferred to disc 600 mg cm^−3, read-out: Inhibition diameter): 17.6 ± 0.2 mm; zone of inhibition at 800000 µg/mL ([1]; Staphylococcus epidermidis, 24 h, solution transferred to disc 800 mg cm^−3, read-out: Inhibition diameter): 18.6 ± 0.2 mm; zone of inhibition at 25000 µg/mL (Micrococcus Luteus; Micrococcus luteus, 24 h, solution transferred to disc 25 mg cm^−3, read-out: Inhibition diameter): 8.6 ± 0.3 mm; zone of inhibition at 50000 µg/mL (Micrococcus Luteus; Micrococcus luteus, 24 h, solution transferred to disc 50 mg cm^−3, read-out: Inhibition diameter): 9.4 ± 0.2 mm; zone of inhibition at 100000 µg/mL (Micrococcus Luteus; Micrococcus luteus, 24 h, solution transferred to disc 100 mg cm^−3, read-out: Inhibition diameter): 9.7 ± 0.2 mm; zone of inhibition at 200000 µg/mL (Micrococcus Luteus; Micrococcus luteus, 24 h, solution transferred to disc 200 mg cm^−3, read-out: Inhibition diameter): 10.2 ± 0.1 mm; zone of inhibition at 400000 µg/mL (Micrococcus Luteus; Micrococcus luteus, 24 h, solution transferred to disc 400 mg cm^−3, read-out: Inhibition diameter): 10.6 ± 0.1 mm; zone of inhibition at 600000 µg/mL (Micrococcus Luteus; Micrococcus luteus, 24 h, solution transferred to disc 600 mg cm^−3, read-out: Inhibition diameter): 11.5 ± 0.2 mm; zone of inhibition at 800000 µg/mL (Micrococcus Luteus; Micrococcus luteus, 24 h, solution transferred to disc 800 mg cm^−3, read-out: Inhibition diameter): 12.7 ± 0.2 mm; TTGonset, the onset of the thermal degradation [3]: 186.2 °C; TDTGmax, maximum decomposition temperature [3]: 218.8 °C
